In ChEMBL document CHEMBL1132340, “Novel prodrug approach for tertiary amines: synthesis and preliminary evaluation of N-phosphonooxymethyl prodrugs” (J Med Chem, 1999):

What was measured:
Type in all cases: physicochemical
[1] = pKa1 value of the compound; conditions: read-out: pKa1
[2] = pKa2 value of the compound; conditions: read-out: pKa2
[3] = pKa value of the compound

pKa [1] | pKa [2] | pKa [3] | SMILES
1.95 | 7.47 |  | O=P(O)(O)OC[N+]1(C/C=C/c2ccccc2)CCN(C(c2ccccc2)c2ccccc2)CC1
 |  | 6.56 | CCCCc1oc2ccccc2c1C(=O)c1cc(I)c(OCC[N+](CC)(CC)COP(=O)(O)O)c(I)c1
 | 7.5 |  | C[N+]1(COP(=O)(O)O)CCN(C2=Nc3ccccc3Oc3ccc(Cl)cc32)CC1
